Test results reported in ChEMBL document CHEMBL5034023, “Development of Multifunctional and Orally Active Cyclic Peptide Agonists of Opioid/Neuropeptide FF Receptors that Produce Potent, Long-Lasting, and Peripherally Restricted Antinociception with Diminished Side Effects” (J Med Chem, 2021).
The source made the active and inactive calls. Bridge positions count the residues as written; N and C are the ends. Square brackets hold non-standard residues; d marks the D form. Peptide text beside a SMILES is read from it. NMeF = CN[C@@H](Cc1ccccc1)C(=O)O

Legend:
[1] = target: Neuropeptide FF receptor 1 (Homo sapiens, UniProt Q9GZQ6); assay: Agonist activity at NPFF1R (unknown origin) expressed in HEK293-A cells assessed as inhibition of forskolin-induced cAMP accumulation by measuring maximal efficacy preincubated for 30 mins in presence of 3-isobutyl-1-methylxanthine followed by forskolin and compound addition by competitive PKA binding assay relative to control; assay type: functional, cell-based; conditions: filed as agonist
[2] = test system: Mus musculus; assay: Antinociceptive activity against Kunming mouse model of thermal-induced nociception assessed as prolongation of tail-flick latency period at 8.68 nmol/kg, po in presence of NALM at 1 mg/kg, ip measured up to 240 mins by tail-flick test; assay type: functional, organism-based; conditions: time min <=240
[3] = AUC (0 to infinity) in Kunming mouse at 868.1 nmol/kg, iv measured up to 120 mins by LC-MS/MS analysis; assay type: ADME, organism-based; design: route intravenous, dose 868.1 nmol/kg, time <=120; conditions: in vivo, 2 h
[4] = Clearance in Kunming mouse at 868.1 nmol/kg, po measured up to 120 mins by LC-MS/MS analysis; assay type: ADME, organism-based; conditions: in vivo
[5] = target: Kappa-type opioid receptor (Homo sapiens, UniProt P41145); assay type: functional, cell-based, HEK293-A
[6] = target: Mu-type opioid receptor (Homo sapiens, UniProt P35372)
[7] = Cmax in Kunming mouse at 868.1 nmol/kg, iv measured up to 120 mins by LC-MS/MS analysis; assay type: ADME, organism-based; design: route intravenous, dose 868.1 nmol/kg, time <=120; conditions: in vivo
[8] = test system: Mus musculus; assay: Antinociceptive activity against Kunming mouse model of thermal-induced nociception assessed as prolongation of tail-flick latency period at 8.68 nmol/kg, sc in presence of beta-FNA at 1 mg/kg, sc measured up to 240 mins by tail-flick test; assay type: functional, organism-based; conditions: time min <=240
[9] = test system: Mus musculus; assay: Antinociceptive activity against po dosed Kunming mouse model of carrageenan-induced mechanical inflammatory pain assessed as reduction in paw withdrawl threshold measured up to 180 mins by Von Frey assay; assay type: functional; conditions: 3 h, time min <=180
[10] = test system: Mus musculus; assay: Antinociceptive activity against Kunming mouse model of thermal-induced nociception assessed as prolongation of tail-flick latency period at 8.68 nmol/kg, po in presence of NALM at 5 nmol, icv measured up to 240 mins by tail-flick test; assay type: functional, organism-based; conditions: time min <=240
[11] = Metabolic stability in mouse plasma assessed as degradation half life at 0.01 M measured up to 360 mins; assay type: ADME, cell-free
[12] = test system: Mus musculus; assay: Antinociceptive activity against Kunming mouse model of thermal-induced nociception assessed as maximum possible effect at 8.68 nmol/kg, po measured after 60 min by tail flick test relative to control; assay type: functional; conditions: 1 h
[13] = test system: Mus musculus; assay: Antinociceptive activity against Kunming mouse model of thermal-induced nociception assessed as prolongation of tail-flick latency period at 8.68 nmol/kg, po in presence of nor-BNI at 1 mg/kg, ip measured up to 240 mins by tail-flick test; assay type: functional, organism-based; conditions: time min <=240
[14] = test system: Mus musculus; assay: Antinociceptive activity in po dosed Kunming mouse assessed as analgesic tolerance by measuring increase in maximal possible effect administered for 8 consecutive days by tail flick test (Rvb= 1.16 nmol/kg); assay type: functional
[15] = test system: Mus musculus; assay: Antinociceptive activity against Kunming mouse model of thermal-induced nociception assessed as duration of analgesic effect administered subcutaneously by tail-flick test; assay type: functional
[16] = test system: Mus musculus; assay: Antinociceptive activity against Kunming mouse model of thermal-induced nociception assessed as prolongation of tail-flick latency period at 8.68 nmol/kg, sc in presence of nor-BNI at 1 mg/kg, sc measured up to 240 mins by tail-flick test; assay type: functional, organism-based; conditions: time min <=240
[17] = target: Neuropeptide FF receptor 2 (Homo sapiens, UniProt Q9Y5X5); assay: Agonist activity at NPFF2R (unknown origin) expressed in HEK293-A cells assessed as inhibition of forskolin-induced cAMP accumulation preincubated for 30 mins in presence of 3-isobutyl-1-methylxanthine followed by forskolin and compound addition by competitive PKA binding assay; assay type: functional, cell-based; conditions: read-out: EC50
[18] = AUC (0 to infinity) in Kunming mouse at 868.1 nmol/kg, po measured up to 120 mins by LC-MS/MS analysis; assay type: ADME, organism-based; design: route oral, dose 868.1 nmol/kg, time <=120; conditions: in vivo, 2 h
[19] = Toxicity in Kunming mouse assessed as effect on arterial partial pressure of carbon dioxide at 868.1 nmol/kg, po measured up to 30 mins by blood gas analyzer; assay type: organism-based; conditions: in vivo, 0.5 h
[20] = test system: Mus musculus; assay: Antinociceptive activity against Kunming mouse model of thermal-induced nociception assessed as prolongation of tail-flick latency period at 0.87 nmol/kg, po in presence of RF9 at 5 mg/kg, ip measured up to 240 mins by tail-flick test; assay type: functional, organism-based; conditions: time min <=240
[21] = MRT (0 to infinity) in Kunming mouse at 868.1 nmol/kg, po measured up to 120 mins by LC-MS/MS analysis; assay type: ADME, organism-based; conditions: in vivo
[22] = test system: Mus musculus; assay: Antinociceptive activity against Kunming mouse model of thermal-induced nociception assessed as maximum possible effect at 8.68 nmol/kg, po measured after 30 min by tail flick test relative to control; assay type: functional; conditions: 0.5 h
[23] = Apparent volume of distribution in Kunming mouse at 868.1 nmol/kg, po measured up to 120 mins by LC-MS/MS analysis; assay type: ADME, organism-based; conditions: in vivo, 2 h
[24] = test system: Mus musculus; assay: Antinociceptive activity against Kunming mouse model of thermal-induced nociception assessed as prolongation of tail-flick latency period at 8.68 nmol/kg, po in presence of Nal at 1 mg/kg, ip measured up to 240 mins by tail-flick test; assay type: functional, organism-based; conditions: time min <=240
[25] = test system: Mus musculus; assay: Antinociceptive activity against Kunming mouse model of thermal-induced nociception assessed as prolongation of tail-flick latency period at 8.68 nmol/kg, sc in presence of NALM at 1 mg/kg, sc measured up to 240 mins by tail-flick test; assay type: functional, organism-based; conditions: time min <=240
[26] = test system: Mus musculus; assay: Antinociception activity in po dosed Kunming mouse model of sciatic nerve CCI-induced neuropathic pain assessed as reduction in thermal hypersensitivity by measuring reduction in paw withdrawl threshold measured up to 180 mins by Hargreaves test; assay type: functional; conditions: 3 h, time min <=180
[27] = test system: Mus musculus; assay: Antinociceptive activity against Kunming mouse model of thermal-induced nociception assessed as prolongation of tail-flick latency period at 2 pmol, icv in presence of NTI measured up to 240 mins by tail-flick test; assay type: functional, organism-based; conditions: time min <=240
[28] = Apparent volume of distribution in Kunming mouse at 868.1 nmol/kg, iv measured up to 120 mins by LC-MS/MS analysis; assay type: ADME, organism-based; conditions: in vivo, read-out: Vd(app)
[29] = test system: Mus musculus; assay: Antinociceptive activity against po dosed Kunming mouse model of thermal-induced nociception assessed as prolongation of tail-flick latency period measured up to 240 mins by tail-flick test; assay type: functional; conditions: 4 h, time min <=240
[30] = Tmax in Kunming mouse at 868.1 nmol/kg, po measured up to 120 mins by LC-MS/MS analysis; assay type: ADME, organism-based; conditions: in vivo
[31] = test system: Mus musculus; assay: Antinociceptive activity against Kunming mouse model of thermal-induced nociception assessed as prolongation of tail-flick latency period at 2 pmol, icv in presence of bet-FNA measured up to 240 mins by tail-flick test; assay type: functional, organism-based; conditions: time min <=240
[32] = test system: Mus musculus; assay: Antinociceptive activity against Kunming mouse model of thermal-induced nociception assessed as prolongation of tail-flick latency period at 8.68 nmol/kg, sc in presence of RF9 at 5 mg/kg, sc measured up to 240 mins by tail-flick test; assay type: functional, organism-based; conditions: time min <=240

Chain of Neuropeptide FF receptor 2 (Q9Y5X5 whole entry): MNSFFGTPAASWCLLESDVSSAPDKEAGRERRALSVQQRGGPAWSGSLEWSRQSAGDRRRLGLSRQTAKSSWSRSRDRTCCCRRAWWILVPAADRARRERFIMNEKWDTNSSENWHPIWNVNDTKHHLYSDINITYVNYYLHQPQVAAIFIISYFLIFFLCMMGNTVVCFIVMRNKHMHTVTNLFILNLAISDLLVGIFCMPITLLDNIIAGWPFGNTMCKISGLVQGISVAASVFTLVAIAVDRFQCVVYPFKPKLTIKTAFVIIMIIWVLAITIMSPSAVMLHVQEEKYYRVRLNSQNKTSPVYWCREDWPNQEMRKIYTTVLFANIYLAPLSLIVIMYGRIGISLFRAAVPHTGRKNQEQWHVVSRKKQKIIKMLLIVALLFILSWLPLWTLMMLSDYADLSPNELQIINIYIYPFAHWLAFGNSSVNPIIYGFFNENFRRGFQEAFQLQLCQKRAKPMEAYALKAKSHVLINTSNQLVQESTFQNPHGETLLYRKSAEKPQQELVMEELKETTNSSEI
Chain of Kappa-type opioid receptor (P41145 whole entry): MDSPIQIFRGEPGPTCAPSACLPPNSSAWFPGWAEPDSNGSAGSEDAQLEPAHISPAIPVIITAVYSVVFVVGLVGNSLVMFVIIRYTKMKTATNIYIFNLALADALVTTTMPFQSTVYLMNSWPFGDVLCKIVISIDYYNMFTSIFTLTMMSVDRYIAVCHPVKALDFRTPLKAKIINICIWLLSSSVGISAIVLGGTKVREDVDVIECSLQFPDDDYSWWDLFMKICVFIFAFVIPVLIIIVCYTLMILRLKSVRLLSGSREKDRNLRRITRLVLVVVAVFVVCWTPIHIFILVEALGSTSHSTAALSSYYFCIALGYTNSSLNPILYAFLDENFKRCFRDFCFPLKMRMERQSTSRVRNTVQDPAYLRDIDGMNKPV
Chain of Mu-type opioid receptor (P35372 whole entry): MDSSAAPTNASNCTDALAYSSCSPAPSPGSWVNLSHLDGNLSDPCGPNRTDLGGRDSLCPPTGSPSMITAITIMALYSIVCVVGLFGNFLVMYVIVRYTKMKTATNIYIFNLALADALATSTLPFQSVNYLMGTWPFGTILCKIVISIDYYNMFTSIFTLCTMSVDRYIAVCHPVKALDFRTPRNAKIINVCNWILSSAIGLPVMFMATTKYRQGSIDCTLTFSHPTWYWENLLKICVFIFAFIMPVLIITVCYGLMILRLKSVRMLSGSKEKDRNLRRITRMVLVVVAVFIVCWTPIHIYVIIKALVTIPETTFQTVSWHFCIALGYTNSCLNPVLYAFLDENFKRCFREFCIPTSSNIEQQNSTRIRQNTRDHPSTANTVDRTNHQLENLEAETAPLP
Chain of Neuropeptide FF receptor 1 (Q9GZQ6 whole entry): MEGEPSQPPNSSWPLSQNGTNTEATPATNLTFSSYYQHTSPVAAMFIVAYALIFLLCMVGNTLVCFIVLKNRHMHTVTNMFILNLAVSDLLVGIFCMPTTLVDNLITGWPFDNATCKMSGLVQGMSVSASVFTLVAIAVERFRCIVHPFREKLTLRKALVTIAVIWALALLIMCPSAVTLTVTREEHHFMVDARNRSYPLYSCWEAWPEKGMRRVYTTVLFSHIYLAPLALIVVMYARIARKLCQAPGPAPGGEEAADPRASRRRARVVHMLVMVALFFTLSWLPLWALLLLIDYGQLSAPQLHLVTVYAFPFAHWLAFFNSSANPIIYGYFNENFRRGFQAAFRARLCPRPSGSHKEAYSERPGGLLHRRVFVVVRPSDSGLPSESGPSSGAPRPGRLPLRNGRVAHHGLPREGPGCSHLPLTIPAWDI

CN1C(=O)CNC(=O)[C@H](NC(=O)[C@@H](N)Cc2ccc(O)cc2)CCCCNC(=O)C[C@@H](C(=O)N2CCC[C@H]2C(=O)N[C@@H](CCC(N)=O)C(=O)N[C@@H](CCCNC(=N)N)C(=O)N[C@@H](Cc2ccccc2)C(N)=O)NC(=O)[C@@H]1Cc1ccccc1 (H-Y[dK]G[NMeF]DPQRF-NH2; lactam 2-5)
Emax [1]: 73.7% | Activity [2]: inactive | AUC [3]: 33297.7 µg·min/L | CL/F [4]: 130 mL/min/kg | EC50 [5]: 39 nM | EC50 [6]: 93.5 nM | Cmax [7]: 5070 ng/mL | Activity [8]: inactive | ED50 [9]: 0.00344 µmol/kg | Activity [10]: Active | half-life at 10000 µM [11]: 45.4 min | MPE [12]: 78.9% | Activity [13]: inactive | ED50 [14]: 0.00126 µmol/kg | Tlast [15]: 240 min | Activity [16]: inactive | EC50 [17]: 49.8 nM | AUC [18]: 13800.8 µg·min/L | Activity [19]: Non-Toxic | Activity [20]: Active | MRT inf [21]: 279 min | MPE [22]: 94.2% | Vd(app) [23]: 15.9 L/kg | Activity [24]: inactive | Activity [25]: inactive | ED50 [26]: 0.00322 µmol/kg | Activity [27]: Active | Vd [28]: 1.2 L/kg | ED50 [29]: 0.00119 µmol/kg | Tmax [30]: 1 min | Activity [31]: inactive | Activity [32]: Active
